In patent publication US11214803B2, “Modulators of YAP1 expression” (Ionis Pharmaceuticals, Inc., priority 2019, dated 2022):
Strand notation (5' to 3'): a small letter for the sugar, then the base; units joined by * are phosphorothioate-linked, units joined directly phosphodiester-linked; [ ] holds rarer units or linkages, { } end groups; capitals alone tell only the bases. k = constrained ethyl (cEt); [5mC] = 5-methylcytosine; d = 2'-deoxy (DNA)

system: Yap1 mRNA; test: Antisense inhibition of human Yap1 in A-431 cells by cEt gapmers, single dose (Example 4, RTS4814); type: cell-based; conditions: Table 14; A-431 cells, 5,000 cells per well, free uptake, 2,000 nM, approximately 48 hours; RTS4814; normalized to RIBOGREEN; Yap1 mRNA relative to untreated control; * = targets amplicon region of primer probe set
Procedure: Modified oligonucleotides were designed to target a Yap1 nucleic acid and were tested for their effect on Yap1 mRNA level in vitro. The modified oligonucleotides were tested in a series of experiments that had similar culture conditions. Cultured A-431 cells at a density of 5,000 cells per well were treated using free uptake with 2,000 nM of modified oligonucleotide. After a treatment period of approximately 48 hours, RNA was isolated from the cells and Yap1 mRNA levels were measured by quantitative real-time RTPCR. Human primer probe set RTS4814 was used to measure mRNA levels. Yap1 mRNA levels were normalized to total RNA content, as measured by RIBOGREEN®. Results are presented in the tables below as percent control of the amount of Yap1 mRNA relative to untreated control cells (% UTC). The modified oligonucleotides with percent control values marked with an asterisk (*) target the amplicon region of the primer probe set. Additional assays may be used to measure the potency and efficacy of the modified oligonucleotides targeting the amplicon region.
The newly designed modified oligonucleotides in the Tables below were designed as 3-10-3 cEt gapmers. The gapmers are 16 nucleosides in length, wherein the central gap segment comprises of ten 2′-deoxynucleosides and is flanked by wing segments on the 5′ direction and the 3′ direction comprising three nucleosides each. Each nucleoside in the 5′ wing segment and each nucleoside in the 3′ wing segment has a cEt sugar modification. The internucleoside linkages throughout each gapmer are phosphorothioate (P═S) linkages. All cytosine residues throughout each gapmer are 5-methylcytosines.
“Start site” indicates the 5′-most nucleoside to which the gapmer is targeted in the human gene sequence. “Stop site” indicates the 3′-most nucleoside to which the gapmer is targeted human gene sequence. […] Activity of the modified oligonucleotide may be defined in a different experiment.

| Substance | YAP1 (% UTC) |
| --- | --- |
| 1075104 (antisense kA*kT*kT*dA*dT*dA*dA*dG*dG*dT*d[5mC]*d[5mC]*dT*kA*k[5mC]*kA) [Compound 1075104] | 67 |
| 1076320 (k[5mC]*kA*kT*dT*dA*dA*d[5mC]*d[5mC]*dT*d[5mC]*dA*d[5mC]*d[5mC]*k[5mC]*kA*kT; antisense) [Compound 1076320] | 52 |
| 1074624 (antisense kG*kG*k[5mC]*dT*dT*dA*dT*dT*d[5mC]*dT*dA*dG*dA*kA*kA*k[5mC]) [Compound 1074624] | 65 |
| 1074368 (antisense kG*kA*kT*dA*dG*dT*dA*dT*d[5mC]*dA*d[5mC]*d[5mC]*dT*kG*kT*kA) [Compound 1074368] | 8 |

same assay, conditions: Table 15; A-431 cells, 5,000 cells per well, free uptake, 2,000 nM, approximately 48 hours; RTS4814; normalized to RIBOGREEN; Yap1 mRNA relative to untreated control; * = targets amplicon region of primer probe set

| Substance | YAP1 (% UTC) |
| --- | --- |
| 1074689 (antisense k[5mC]*kT*k[5mC]*d[5mC]*d[5mC]*d[5mC]*d[5mC]*dT*dA*dA*dG*d[5mC]*dT*kA*kA*kA) [Compound 1074689] | 70 |
| 1075585 (kA*kA*kA*dT*dA*dA*dT*dT*dG*dA*d[5mC]*d[5mC]*dT*kA*kG*k[5mC]; antisense) [Compound 1075585] | 52 |
| 1074241 (antisense kG*kA*kT*dG*dT*d[5mC]*dT*dT*dT*dG*d[5mC]*d[5mC]*dA*kT*k[5mC]*kT) [Compound 1074241] | 72 |
| 1076097 (k[5mC]*kA*kA*dT*dA*dA*dT*dA*dA*dA*d[5mC]*dG*dA*kT*kT*k[5mC]; antisense) [Compound 1076097] | 70 |
| 1076449 (k[5mC]*k[5mC]*kT*dT*dA*dT*dA*dA*dT*dG*d[5mC]*dA*dA*kT*k[5mC]*k[5mC]; antisense) [Compound 1076449] | 2 |

same assay, conditions: Table 16; A-431 cells, 5,000 cells per well, free uptake, 2,000 nM, approximately 48 hours; RTS4814; normalized to RIBOGREEN; Yap1 mRNA relative to untreated control cells

| Substance | YAP1 (% UTC) |
| --- | --- |
| 1074786 (kA*kA*k[5mC]*d[5mC]*dA*dT*dA*dA*dG*dT*dA*dG*dA*kT*k[5mC]*kT; antisense) [Compound 1074786] | 28 |
| 1074818 (kA*k[5mC]*kT*dG*dA*dA*dT*dA*dT*dT*dG*d[5mC]*d[5mC]*kA*k[5mC]*k[5mC]; antisense) [Compound 1074818] | 12 |

same assay, conditions: Table 17; A-431 cells, 5,000 cells per well, free uptake, 2,000 nM, approximately 48 hours; RTS4814; normalized to RIBOGREEN; Yap1 mRNA relative to untreated control cells

| Substance | YAP1 (% UTC) |
| --- | --- |
| 1074979 (antisense kA*kT*kT*dG*d[5mC]*d[5mC]*dA*dG*dT*dT*d[5mC]*dT*dT*kG*kT*kT) [Compound 1074979] | 32 |
| 1074147 (antisense kA*kG*kA*dA*dG*d[5mC]*dG*dG*d[5mC]*dG*dA*d[5mC]*dG*kG*k[5mC]*kT) [Compound 1074147] | 23 |
| 1074851 (antisense kA*kT*kT*dG*dT*dT*dA*dT*dG*dA*dT*dA*dG*kG*k[5mC]*kA) [Compound 1074851] | 6 |
| 1075747 (kA*kT*kT*dT*dA*dG*d[5mC]*dA*dT*dG*dA*dT*dT*kA*kA*k[5mC]; antisense) [Compound 1075747] | 43 |

same assay, conditions: Yap1 mRNA remaining as percent of untreated control; 3-10-3 cEt gapmers; A-431 cells; Table 36

| Substance | YAP1 (% UTC) |
| --- | --- |
| 1075926 (antisense kG*kT*kA*dG*dA*dA*d[5mC]*d[5mC]*dT*dA*dT*dA*dT*kT*kA*kT) [compound 1075926] | 25 |
| 1075286 (antisense kA*kT*kT*dA*d[5mC]*dG*dG*dA*d[5mC]*dA*dG*dA*dA*kG*kT*kG) [compound 1075286] | 48 |
| 1075062 (antisense k[5mC]*kT*kT*dT*dA*dA*d[5mC]*d[5mC]*dT*dT*dA*dT*dA*k[5mC]*kT*kT) [compound 1075062] | 58 |

same assay, conditions: Yap1 mRNA remaining as percent of untreated control; 3-10-3 cEt gapmers; A-431 cells; Table 37

| Substance | YAP1 (% UTC) |
| --- | --- |
| 1074903 (antisense k[5mC]*k[5mC]*kT*dA*dT*dT*dA*dA*d[5mC]*dT*dT*dT*dT*kG*kG*kG) [compound 1074903] | 87 |
| 1074807 (k[5mC]*k[5mC]*kA*dT*dA*dT*dA*dG*dA*dA*dG*dG*d[5mC]*kA*kT*kG; antisense) [compound 1074807] | 75 |
| 1075895 (antisense kA*k[5mC]*kT*d[5mC]*dG*dA*dA*dA*dG*d[5mC]*dT*dG*dG*kG*k[5mC]*k[5mC]) [compound 1075895] | 38 |
| 1075991 (kA*kT*kA*dT*dA*dG*dG*dA*d[5mC]*d[5mC]*dA*d[5mC]*dG*kA*k[5mC]*kT; antisense) [compound 1075991] | 62 |
